In patent publication US7198651B2, “Method of effecting a reversible color change of dyed hair” (Kao Corporation, priority 2003, dated 2007):

Test: Measurement of pKa value of the dyes (spectrophotometric titration)
Format: physicochemical
Conditions: DMF/water (1/1), titration from pH 2 with NaOH, UV-vis inflection point
Protocol: The pKa values of the dyes can be determined by the following method. The dye is dissolved in a solution of a DMF/water (1/1) volume ratio to a final concentration of 2×10^−5 mol/l. After adjusting the resulting solution to pH 2, using 1.0 mol/l hydrochloric acid, the solution is titrated with aqueous 1.0 mol/l sodium hydroxide solution. Recording the change of the visible ultra-violet absorption spectrum, the inflection point can be determined by regression analysis.

pKa	SMILES
6.0	CC(=O)Nc1cc(/N=N/c2nncs2)ccc1O [Dye 1]
5.5	O=C(Nc1cc(/N=N/c2nc(-c3ccccc3)no2)c2ccccc2c1O)c1ccncc1 [Dye 2]
6.5	CS(=O)(=O)c1ccc(/N=N/c2ccc(O)c3ccccc23)c(C#N)c1 [Dye 3]
6.1	CSc1nnc(/N=N/c2ccc(O)c(NC(C)=O)c2)s1 [Dye 5]
6.2	CC(=O)Nc1cc(/N=N/c2nc3ccccc3s2)ccc1O [Dye 6]
5.9	Oc1ccc(/N=N/c2nc3ccccc3s2)cc1Cl [Dye 7]
4.4	CCSc1nnc(N=Nc2ccc(O)c3cccc(NS(C)(=O)=O)c23)s1 [Dye 8]
6.1	CS(=O)(=O)Nc1cccc2c(O)ccc(N=Nc3nc4ccccc4s3)c12 [Dye 9]
4.0	CCC(=O)Nc1cc(N=Nc2snc3ccc(S(N)(=O)=O)cc23)cc(Cl)c1O [Dye 12]
4.7	NS(=O)(=O)c1ccc2nsc(N=Nc3cc(Cl)c(O)cc3Cl)c2c1 [Dye 13]
6.4	COCCOc1ccc(N=NC2C(=O)N(c3ccccc3)N=C2C(N)=O)cc1S(N)(=O)=O (stereo not drawn) [Dye 21]
5.5	CCSc1nnc(/N=N/c2c(C(C)(C)C)nn3nc(C)[nH]c23)s1 [Dye 22]
5.8	N#CC(/N=N/c1ccc(S(N)(=O)=O)cc1)C(=O)c1ccccc1 (stereo not drawn) [Dye 23]
5.9	Cc1nn2nc(C(C)(C)C)c(/N=N/c3cc(Cl)c(S(N)(=O)=O)cc3Cl)c2[nH]1 [Dye 24]
3.0	CCSc1nsc(/N=N/c2cc(Cl)c(O)c(NC(=O)CC)c2)n1 [Dye 25, reference compound]
3.5	CCSc1nsc(/N=N/c2cc(Cl)c(O)cc2Cl)n1 [Dye 26, reference compound]
3.3	CCC(=O)Nc1cc(/N=N/c2nc(C)ns2)cc(Cl)c1O [Dye 29, reference compound]
3.8	Cc1nsc(/N=N/c2cc(Cl)c(O)cc2Cl)n1 [Dye 30, reference compound]
5.0	Cc1nsc(/N=N/c2ccc(O)c(Cl)c2)n1 [Dye 31, reference compound]
5.2	CC(=O)Nc1cc(N=Nc2nc(C)ns2)ccc1O [Dye 32, reference compound]
4.7	CCSc1nnc(/N=N/c2c(C(C)(C)C)nn3nc(C(C)C)[nH]c23)s1 [Dye 35, reference compound]
5.2	CCc1nn2c(-c3ccc(OC)c(NS(C)(=O)=O)c3)n[nH]c2c1/N=N/c1nc(C(C)C)no1 [Dye 36, reference compound]
3.9	CNS(=O)(=O)c1ccc2nsc(/N=N/c3cc(NC(C)=O)c(O)c(NC(C)=O)c3)c2c1 [Dye 39, reference compound]

Same assay, conditions: DMF/water (1/1 v/v) solution, titration from pH 2 with NaOH, UV-vis inflection point, read-out: pKa

pKa	SMILES
7	CC(=O)Nc1cc(/N=N/c2ccc(S(C)(=O)=O)cc2C#N)c2ccccc2c1O [Dye 4]
5	CS(=O)(=O)Nc1cccc2c(O)ccc(/N=N/c3snc4ccc(S(N)(=O)=O)cc34)c12 [Dye 10]
3	CC(=O)Nc1cc(/N=N/c2snc3ccc(S(N)(=O)=O)cc23)c(Cl)c(Cl)c1O [Dye 27, reference compound]
4.8	CCC(=O)Nc1cc(/N=N/c2nccs2)cc(Cl)c1O [Dye 28, reference compound]
